Source: patent US9993564B2, “Blood brain barrier shuttle” (Hoffmann-La Roche Inc., priority 2014, dated 2018)

Assays:
[1] = in vivo phage display selection (4 rounds) with CSF sampling, sequencing of CSF recovered phage clones; parameters: species or system rat; conditions: for Reads: CSF recovered phage clones after 4 rounds of in vivo selection in rats, 924 sequencing in total; for Frequency (%): frequency of each peptide related to the 924 total sequencing runs, CSF, after 4 rounds of in vivo selection in rats
[2] = system: brain blood vessels and capillaries; experiment: immunohistochemistry of intravenously administered phage clones bound to brain vasculature; type: in vivo; conditions: FIG. 5, no staining with empty phage
From the text: Specific phage clones were intravenously administered to allow targeting in vivo. Subsequently, immunohistochemistry was used to detect the phages specifically bound to the brain blood vessels and capillaries. […] ID. NO. 1, SEQ. ID. NO. 6 and SEQ. ID. NO.
ID. NO. 8 is linked to SA through an N-terminal biotin. […] ID. NO.

Substance: 1 (LYVLHSRGLWGFKL; Brain targeting peptide) [compound 1]
- Reads [1]: 147
- Frequency (%) [1]: 15.9%

Substance: 2 (LGSVS; Brain targeting peptide) [compound 2]
- Reads [1]: 137
- Frequency (%) [1]: 14.8%

Substance: 3 (GFVRFRLSNTR; Brain targeting peptide) [compound 3]
- Reads [1]: 115
- Frequency (%) [1]: 12.4%

Substance: 4 (KVAWRVFSLFWK; Brain targeting peptide) [compound 4]
- Reads [1]: 57
- Frequency (%) [1]: 6.1%

Substance: 5 (SVHGV; Brain targeting peptide) [compound 5]
- Reads [1]: 40
- Frequency (%) [1]: 6.1%

Substance: 6 (GRPQKINGARVC; Brain targeting peptide) [compound 6]
- Reads [1]: 29
- Frequency (%) [1]: 4.3%

Substance: 7 (MRWFFSHASQGR; Brain targeting peptide) [compound 7]
- Reads [1]: 28
- Frequency (%) [1]: 3.1%

Substance: 8 (RLSSVDSDLSGC; Brain targeting peptide) [compound 8]
- Reads [1]: 26
- Frequency (%) [1]: 3.0%

Substance: 9 (IGTLTT; Brain targeting peptide) [compound 9]
- Reads [1]: 22
- Frequency (%) [1]: 2.8%

Substance: 10 (YNQSLLQGYRYW; Brain targeting peptide) [compound 10]
- Reads [1]: 21
- Frequency (%) [1]: 2.3%

Substance: 11 (RSTASTSYPFFF; Brain targeting peptide) [compound 11]
- Reads [1]: 17
- Frequency (%) [1]: 2.2%

Substance: 12 (ISNRSHKGLMVG; Brain targeting peptide) [compound 12]
- Reads [1]: 16
- Frequency (%) [1]: 1.8%

Substance: 13 (DAAESVLVGTVR; Brain targeting peptide) [compound 13]
- Reads [1]: 15
- Frequency (%) [1]: 1.7%

Substance: 14 (YAWGGGWVLQWF; Brain targeting peptide) [compound 14]
- Reads [1]: 12
- Frequency (%) [1]: 1.6%

Substance: 15 (YSMVFVGIKL; Brain targeting peptide) [compound 15]
- Reads [1]: 10
- Frequency (%) [1]: 1.2%

Substance: 16 (DVAKVS; Brain targeting peptide) [compound 16]
- Reads [1]: 10
- Frequency (%) [1]: 1.0%

Substance: 17 (RRPAPLIMFRMI; Brain targeting peptide) [compound 17]
- Reads [1]: 9
- Frequency (%) [1]: 1.0%

Substance: 18 (DPQILMGVLRSIRGFGVKL; Brain targeting peptide) [compound 18]
- Reads [1]: 9
- Frequency (%) [1]: 0.9%

Substance: 19 (SRYSIGGNNGVT; Brain targeting peptide) [compound 19]
- Reads [1]: 7
- Frequency (%) [1]: 0.9%

Substance: 20 (SGSGIGLDRWRV; Brain targeting peptide) [compound 20]
- Reads [1]: 7
- Frequency (%) [1]: 0.7%

Substance: 21 (WGCNGTEWRGLLGIKL; Brain targeting peptide) [compound 21]
- Reads [1]: 6
- Frequency (%) [1]: 0.7%

Substance: 22 (NSHAMSC; Brain targeting peptide) [compound 22]
- Reads [1]: 5
- Frequency (%) [1]: 0.6%

Substance: 23 (STVVCFKGVPTG; Brain targeting peptide) [compound 23]
- Reads [1]: 5
- Frequency (%) [1]: 0.5%

Substance: 24 (TWLFSLG; Brain targeting peptide) [compound 24]
- Reads [1]: 4
- Frequency (%) [1]: 0.5%

Substance: 25 (LPGGSPGHILVC; Brain targeting peptide) [compound 25]
- Reads [1]: 4
- Frequency (%) [1]: 0.4%

Substance: 26 (GWIPYDGGNRAR; Brain targeting peptide) [compound 26]
- Reads [1]: 4
- Frequency (%) [1]: 0.4%

Substance: 27 (STMRYVGVTCL; Brain targeting peptide) [compound 27]
- Reads [1]: 3
- Frequency (%) [1]: 0.4%

Substance: 28 (GCASPASTSFHS; Brain targeting peptide) [compound 28]
- Reads [1]: 3
- Frequency (%) [1]: 0.3%

Substance: 29 (LRPRGAFQRRDFKL; Brain targeting peptide) [compound 29]
- Reads [1]: 3
- Frequency (%) [1]: 0.3%

Substance: 30 (ELVHA; Brain targeting peptide) [compound 30]
- Reads [1]: 3
- Frequency (%) [1]: 0.3%

Substance: 31 (FLIQWGAVLSRG; Brain targeting peptide) [compound 31]
- Reads [1]: 2
- Frequency (%) [1]: 0.3%

Substance: 32 (VRDWAYVYSTVL; Brain targeting peptide) [compound 32]
- Reads [1]: 2
- Frequency (%) [1]: 0.2%

Substance: 33 (TAVFSALSMLRG; Brain targeting peptide) [compound 33]
- Reads [1]: 2
- Frequency (%) [1]: 0.2%

Substance: 34 (AVES; Brain targeting peptide) [compound 34]
- Reads [1]: 2
- Frequency (%) [1]: 0.2%

Substance: 35 (RPRAQGAL; Brain targeting peptide) [compound 35]
- Reads [1]: 2
- Frequency (%) [1]: 0.2%

Substance: 36 (LWVSVPRARIIQ; Brain targeting peptide) [compound 36]
- Reads [1]: 2
- Frequency (%) [1]: 0.2%

Substance: GRPQKINGARVC [SEQ. ID. NO. 6]
- staining at brain capillaries in the cortex (immunohistochemistry) [2]: strong and specific staining

Substance: LYVLHSRGLWGFKL (displayed on T7 phage; Brain targeting peptide) [SEQ. ID. NO. 1]
- staining at brain capillaries in the cortex (immunohistochemistry) [2]: strong and specific staining
